Laboratory results as given in patent US8835644B2, “Broad spectrum benzothiophene-nitrothiazolide and other antimicrobials” (University of Virginia Patent Foundation, priority 2009, dated 2014).
Converted amounts (≈) assume the structure as drawn. Where a name gives a salt, the structure may show the parent alone. Read-outs that look alike come from different tables or passages of the source.

Legend:
H. pylori = test: MIC testing by broth dilution, H. pylori; type: cell-based, Helicobacter pylori
Procedure: (§1) A standard broth dilution protocol was used in 96 well microplates containing a standard dilution of the microorganism to be tested in 100 microliters of the appropriate medium. Appropriate medium: E. coli, LB medium; Staphylococcus strains, Trypticase Soy; and for H. pylori and C. jejuni, Brain Heart Infusion. The compounds to be tested were set at 32 μg/ml in 200 microliters in well one and then serially diluted to provide a range from 32 to 0.06. The wells were scored visually at 24 h. The well where there was no growth was recorded as the MIC. Clostridium difficile was tested by agar diffusion and disk diffusion (Kirby Bower) methods under anaerobic conditions on Wilkins Chalgrin agar. In these assays, zone of inhibited growth was measured and compared by relative ratio to the zone recorded for NTZ.
(§2) Representative compounds of the invention were tested in a series of assays against a series of organisms as described above. […] The organisms tested include, C. difficile, H. pylori, C. jejuni, MRSA, S. epidermidis, and E. coli. S. epidermidis and E. coli were tested in the plank and biofilm assay. A disk diffusion assay was also used for C. difficile. Direct PFOR enzyme assays were also performed. All analogues and derivatives were not tested on every organism in every type of assay (the “-” in each table means that it was not tested).

C. jejuni = test: MIC testing by broth dilution, C. jejuni; type: cell-based, Campylobacter jejuni
Procedure: as §1, §2

MRSA = test: MIC testing by broth dilution, MRSA; type: cell-based, Staphylococcus aureus
Procedure: as §1, §2

S. epidermidis = test: MIC testing by broth dilution, S. epidermidis plank; type: cell-based, Staphylococcus epidermidis
Procedure: as §1, §2

E. coli = test: MIC testing by broth dilution, E. coli plank; type: cell-based, Escherichia coli
Procedure: as §1, §2

C. difficile = test: Disk diffusion (Kirby Bower), C. difficile; type: cell-based, Clostridium difficile; details: for Disk Diffusion (%) C. difficile: zone of inhibited growth as relative ratio to the zone for NTZ
Procedure: as §1, §2

E. coli biofilm = E. coli biofilm assay (activity tables); type: cell-based, Escherichia coli; details: biofilm; read-out: MIC (μM) E. coli Biofilm
Procedure: A quantitative biofilm assay was used to determine the effect of NTZ on biofilm formation (41). Strain 042 was grown overnight at 37° C. with shaking and inoculated 1:100 in 200 μl culture medium in Costar 96-well, flat-bottom, polystyrene microtiter plates containing appropriate concentrations of NTZ. Plates were incubated statically at 37° C. in a humidified incubator. At 24 h, bacterial growth was measured by either transferring […] aliquots to another microtiter plate to determine turbidity or by diluting 100 μl aliquots 1:100 in 9.9 ml PBS for quantitative plate counts on LB medium. Bacterial counts in triplicate are reported as cfu/ml. Biofilm was visualized following staining with 0.5% crystal violet (41) and the absorbance was read at 570 nm using a microplate reader (Molecular Dynamics). All experiments were in triplicate and reported as mean and standard deviation.
as §1, §2

[1] = broth dilution, Brain Heart Infusion, 24 h, read-out: MIC (μM) H. pylori
[2] = broth dilution, Brain Heart Infusion, 24 h, read-out: MIC (μM) C. jejuni
[3] = broth dilution, Trypticase Soy, 24 h, read-out: MIC (μM) MRSA
[4] = broth dilution, Trypticase Soy, 24 h, read-out: MIC (μM) S. epidermidis Plank
[5] = broth dilution, LB medium, 24 h, read-out: MIC (μM) E. coli Plank
[6] = Helicobacter pylori, 24 h, read-out: MIC (μM) H. pylori
[7] = Campylobacter jejuni, 24 h, read-out: MIC (μM) C. jejuni
[8] = Staphylococcus aureus, MRSA, 24 h, read-out: MIC (μM) MRSA
[9] = Staphylococcus epidermidis, 24 h, read-out: MIC (μM) S. epidermidis Plank
[10] = Escherichia coli, 24 h, read-out: MIC (μM) E. coli Plank

| Compound | MIC (H. pylori; [1]) [µM] | MIC (C. jejuni; [2]) [µM] | MIC (MRSA; [3]) [µM] | MIC (S. epidermidis; [4]) [µM] | MIC (E. coli; [5]) [µM] | further results |
| --- | --- | --- | --- | --- | --- | --- |
| O=C(Nc1ncc([N+](=O)[O-])s1)c1cc2cc([N+](=O)[O-])ccc2o1 [VPC16a1019] |  |  |  |  |  | MIC (H. pylori; Furan analogues table, read-out: MIC H. pylori): 4.5 µM (≈ 1.5 µg/mL); MIC (C. jejuni; Furan analogues table, read-out: MIC C. jejuni): 4.5 µM (≈ 1.5 µg/mL); MIC (MRSA; Furan analogues table, read-out: MIC MRSA): 47.9 µM (≈ 16 µg/mL); MIC (S. epidermidis; planktonic, Furan analogues table, read-out: MIC S. epidermidis Plank): 23.9 µM (≈ 7.99 µg/mL); MIC (E. coli; planktonic, Furan analogues table, read-out: MIC E. coli Plank): 95.7 µM (≈ 32 µg/mL); Disk Diff (%) C. difficile (C. difficile; Nitazoxanide = 100, Furan analogues table): 77% |
| O=C(Nc1ncc([N+](=O)[O-])s1)c1cccc(OC(F)(F)F)c1 [VPC16a1041] | 1.1 (≈ 0.367 µg/mL) | 9.0 (≈ 3 µg/mL) | 6.0 (≈ 2 µg/mL) | 12.0 (≈ 4 µg/mL) | 96.0 (≈ 32 µg/mL) | Disk Diffusion (%) C. difficile (C. difficile): 90% |
| O=C(Nc1ncc([N+](=O)[O-])s1)c1ccc(C(F)(F)F)cc1[N+](=O)[O-] [VPC16b1016] | 8.3 (≈ 3.01 µg/mL) | 88.3 (≈ 32 µg/mL) | 88.3 (≈ 32 µg/mL) | 88.3 (≈ 32 µg/mL) | 88.3 (≈ 32 µg/mL) | MIC (E. coli biofilm): 88.3 µM (≈ 32 µg/mL) |
| O=C(Nc1ncc([N+](=O)[O-])s1)c1ccc(F)c([N+](=O)[O-])c1 [VPC16b1017] | 1.6 (≈ 0.5 µg/mL) | 51.2 (≈ 16 µg/mL) | 76.9 (≈ 24 µg/mL) | 51.2 (≈ 16 µg/mL) | 102.5 (≈ 32 µg/mL) | MIC (E. coli biofilm): 102.5 µM (≈ 32 µg/mL) |
| O=C(Nc1ncc([N+](=O)[O-])s1)c1cc2ccccc2[nH]1 [VPC16b1031, N-(5-Nitrothiazol-2-yl)-1H-indole-2-carboxamide] |  |  |  |  |  | MIC (H. pylori; [6]): 6.9 µM (≈ 1.99 µg/mL); MIC (C. jejuni; [7]): 13.9 µM (≈ 4.01 µg/mL); MIC (MRSA; [8]): 27.8 µM (≈ 8.01 µg/mL); MIC (S. epidermidis; [9]): 13.9 µM (≈ 4.01 µg/mL); MIC (E. coli; [10]): 111 µM (≈ 32 µg/mL); Disk Diffusion (%) C. difficile (C. difficile): 75% |
| NCCOc1ccccc1C(=O)Nc1ncc([N+](=O)[O-])s1.O=C(O)C(F)(F)F [VPC161219TFA] | 1.88 | 14.2 | 75.8 | 75.8 | 75.8 | Disk Diffusion (%) C. difficile (C. difficile): 81% |
| O=C(Nc1ccccc1)Nc1ncc([N+](=O)[O-])s1 [VPC161223, 1-(5-Nitrothiazol-2-yl)-3-phenylurea] |  |  |  |  |  | MIC (H. pylori; [6]): 1.4 µM (≈ 0.37 µg/mL); MIC (C. jejuni; [7]): 30.3 µM (≈ 8.01 µg/mL); MIC (MRSA; [8]): 30.3 µM (≈ 8.01 µg/mL); MIC (S. epidermidis; [9]): 30.3 µM (≈ 8.01 µg/mL); MIC (E. coli; [10]): 121 µM (≈ 32 µg/mL) |
| O=C(Nc1nccs1)c1sc2cc(F)ccc2c1Cl [VPC161235] |  |  |  |  |  | MIC (H. pylori; Helicobacter pylori, Thiophene analogues table, read-out: MIC H. pylori): 12.8 µM (≈ 4 µg/mL); MIC (C. jejuni; Campylobacter jejuni, Thiophene analogues table, read-out: MIC C. jejuni): 102 µM (≈ 32 µg/mL); MIC (MRSA; Staphylococcus aureus, MRSA, Thiophene analogues table, read-out: MIC MRSA): 102 µM (≈ 32 µg/mL); MIC (S. epidermidis; Staphylococcus epidermidis, planktonic, Thiophene analogues table, read-out: MIC S. epidermidis Plank): 102 µM (≈ 32 µg/mL); MIC (E. coli; Escherichia coli, planktonic, Thiophene analogues table, read-out: MIC E. coli Plank): 102 µM (≈ 32 µg/mL) |
| O=C(C=Cc1ccc(C(F)(F)F)cc1)Nc1ncc([N+](=O)[O-])s1 [VPC161239] | 0.6 (≈ 0.206 µg/mL) | 93.2 (≈ 32 µg/mL) | 93.2 (≈ 32 µg/mL) | 2.9 (≈ 0.996 µg/mL) | 93.2 (≈ 32 µg/mL) |  |
| Cl.NCCOc1cc([N+](=O)[O-])ccc1C(=O)Nc1ncc([N+](=O)[O-])s1 [VPC161256] | 1.3 | 5.1 | 82.1 | 82.1 | 82.1 |  |
| COc1cc2cc(C(=O)Nc3ncc([N+](=O)[O-])s3)sc2cc1F [VPC161259] |  |  |  |  |  | MIC (H. pylori; Thiophene analogues table, read-out: MIC H. pylori): 2.1 µM (≈ 0.742 µg/mL); MIC (C. jejuni; Thiophene analogues table, read-out: MIC C. jejuni): 11.3 µM (≈ 3.99 µg/mL); MIC (MRSA; Thiophene analogues table, read-out: MIC MRSA): 11.3 µM (≈ 3.99 µg/mL); MIC (S. epidermidis; planktonic, Thiophene analogues table, read-out: MIC S. epidermidis Plank): 11.3 µM (≈ 3.99 µg/mL); MIC (E. coli; planktonic, Thiophene analogues table, read-out: MIC E. coli Plank): 90.6 µM (≈ 32 µg/mL) |
| CC(C)(C)OC(=O)COc1ccc(C(=O)Nc2ncc([N+](=O)[O-])s2)cc1 [VPC162036] | 0.5 (≈ 0.19 µg/mL) | 84.4 (≈ 32 µg/mL) | 84.3 (≈ 32 µg/mL) | 84.3 (≈ 32 µg/mL) | 84.3 (≈ 32 µg/mL) |  |
| O=C(O)COc1ccccc1C(=O)Nc1ncc([N+](=O)[O-])s1 [VPC162042, 2-(2-(5-nitrothiazol-2-ylcarbamoyl)phenoxy)acetic acid] |  |  |  |  |  | MIC (H. pylori; [6]): 49.5 µM (≈ 16 µg/mL); MIC (C. jejuni; [7]): 99 µM (≈ 32 µg/mL); MIC (MRSA; [8]): 99 µM (≈ 32 µg/mL); MIC (S. epidermidis; [9]): 99 µM (≈ 32 µg/mL); MIC (E. coli; [10]): 99 µM (≈ 32 µg/mL) |
| O=C(O)COc1ccc(C(=O)Nc2ncc([N+](=O)[O-])s2)cc1 [VPC162043] | 99.0 (≈ 32 µg/mL) | 99.0 (≈ 32 µg/mL) | 99.0 (≈ 32 µg/mL) | 99.0 (≈ 32 µg/mL) | 99.0 (≈ 32 µg/mL) |  |
| CC(=O)Nc1ccccc1C(=O)Nc1ncc([N+](=O)[O-])s1 [VPC162046b] | 6.9 (≈ 2.11 µg/mL) | 41.6 (≈ 12.7 µg/mL) | 55.5 (≈ 17 µg/mL) | 111.0 (≈ 34 µg/mL) | 111.0 (≈ 34 µg/mL) |  |
| CN(C)CCOc1ccccc1C(=O)Nc1ncc([N+](=O)[O-])s1 [VPC162052] | 1.5 (≈ 0.505 µg/mL) | 17.8 (≈ 5.99 µg/mL) | 95.1 (≈ 32 µg/mL) | 95.1 (≈ 32 µg/mL) | 95.1 (≈ 32 µg/mL) |  |
| O=C(COc1ccccc1C(=O)Nc1ncc([N+](=O)[O-])s1)Nc1ccccc1 [VPC162056] | 0.9 (≈ 0.359 µg/mL) | 80.3 (≈ 32 µg/mL) | 80.3 (≈ 32 µg/mL) | 80.3 (≈ 32 µg/mL) | 80.3 (≈ 32 µg/mL) |  |
| CCCCCCNC(=O)COc1ccccc1C(=O)Nc1ncc([N+](=O)[O-])s1 [VPC162064] | 1.9 (≈ 0.772 µg/mL) | 78.7 (≈ 32 µg/mL) | 78.7 (≈ 32 µg/mL) | 4.9 (≈ 1.99 µg/mL) | 78.7 (≈ 32 µg/mL) |  |
| O=C(COc1ccccc1C(=O)Nc1ncc([N+](=O)[O-])s1)NCCN1CCOCC1 [VPC162065] | 2.3 (≈ 1 µg/mL) | 36.7 (≈ 16 µg/mL) | 73.5 (≈ 32 µg/mL) | 27.6 (≈ 12 µg/mL) | 73.5 (≈ 32 µg/mL) |  |
| Cl.O=C(Nc1ncc([N+](=O)[O-])s1)c1ccccc1OCCNC(=O)C1CCNCC1 [VPC162068] | 52.6 | 35.1 | 70.2 | 70.2 | 70.2 |  |
| NCCOC(=O)COc1ccccc1C(=O)Nc1ncc([N+](=O)[O-])s1 [VPC162082, 2-Aminoethyl 2-(2-(5-nitrothiazol-2-ylcarbamoyl)phenoxy)acetate hydrochloride] |  |  |  |  |  | MIC (H. pylori; [6]): 6.2 µM; MIC (C. jejuni; [7]): 29.8 µM; MIC (MRSA; [8]): 79.4 µM; MIC (S. epidermidis; [9]): 79.4 µM; MIC (E. coli; [10]): 79.4 µM |
| Cl.O=C(COc1ccccc1C(=O)Nc1ncc([N+](=O)[O-])s1)OC1CNC1 [VPC162083] | 24.1 | 77.1 | 77.1 | 77.1 | 77.1 |  |
